Measurements published in ChEMBL document CHEMBL1124939, “Synthesis of thromboxane receptor antagonists with bicyclo[3.1.0]hexane ring systems” (J Med Chem, 1990).

How the values were obtained:
Type in all cases: functional
Rattus norvegicus [1] = species on record: Rattus norvegicus; experiment: The partial agonistic activity (shape change of rat WP) induced by test compound at 1 uM was calibrated for that of S-145
Oryctolagus cuniculus = species on record: Oryctolagus cuniculus; experiment: Tested for the inhibitory activity against aggregation of rabbit platelet-rich plasma (PRP) induced by 500 uM of arachidonic acid.
Rattus norvegicus [2] = species on record: Rattus norvegicus; experiment: Tested for the inhibitory activity against aggregation of rat washed platelets (WP) induced by 4 micro g/mL of collagen.

Row | IC50 (Oryctolagus cuniculus) [nM] | IC50 (Rattus norvegicus [2]) [nM] | SMILES | Relative agonist activity (Rattus norvegicus [1])
1 | 2600 | 4 | O=C([O-])CCC/C=C\C[C@H]1C2O[C@H]2C[C@@H]1NS(=O)(=O)c1ccccc1.[Na+] (mixture of isomers) | 82
2 | 49100 | 23 | O=C([O-])CCC/C=C\C[C@H]1C2O[C@H]2C[C@H]1NS(=O)(=O)c1ccccc1.[Na+] (mixture of isomers) | 26
3 | 391000 | 100 | O=C([O-])CCC/C=C\C[C@H]1C2OC2C[C@@H]1NS(=O)(=O)c1ccccc1.[Na+] (mixture of isomers) | 0

Continued, molecule first:

Row | SMILES | IC50 (Oryctolagus cuniculus) [nM] | IC50 (Rattus norvegicus [2]) [nM] | Relative agonist activity (Rattus norvegicus [1])
4 | O=C([O-])CCC/C=C\C[C@H]1C2CC2C[C@H]1NS(=O)(=O)c1ccccc1.[Na+] (mixture of isomers) | 37800 | 25 | 33
5 | O=C([O-])CCC/C=C\C[C@H]1[C@H]2S[C@H]2C[C@@H]1NS(=O)(=O)c1ccccc1.[Na+] (racemic) | 11300 | 2.9 | 74
6 | CC1(C)[C@@H]2[C@H](C/C=C\CCCC(=O)[O-])[C@@H](NS(=O)(=O)c3ccccc3)C[C@@H]21.[Na+] (racemic) | 44000 | 4.3 | 22
7 | CC1(C)[C@H]2[C@H](C/C=C\CCCC(=O)[O-])[C@@H](NS(=O)(=O)c3ccccc3)C[C@H]21.[Na+] (racemic) | 432000 | 4.1 | 11
8 | O=C([O-])CCC/C=C\C[C@H]1[C@H]2C[C@H]2C[C@@H]1NS(=O)(=O)c1ccccc1.[Na+] (racemic) | 5300 | 8.3 | 67
9 | O=C([O-])CCC/C=C\C[C@H]1[C@@H]2C[C@@H]2C[C@@H]1NS(=O)(=O)c1ccccc1.[Na+] (racemic) | 11300 | 12.5 | 22
10 | O=C(O)CCC/C=C\C[C@H]1[C@@H]2CCC(C2)[C@@H]1NS(=O)(=O)c1ccccc1 | 1000 | 1 | 100
11 | O=C([O-])CCC/C=C\C[C@H]1[C@@H]2S[C@@H]2C[C@@H]1NS(=O)(=O)c1ccccc1.[Na+] (racemic) | 178000 | 10 | 0
